Test results: US20240099214A1, “PLANT DEFENCE GENE EXPRESSION” (UPL Corporation Limited, priority 2021, published 2024)

Columns and labels:
[1] = system: PR protein (gene 12, M69248.1); test: qRT-PCR expression of gene 12 in tomato leaves; format: in vivo, Tomato ecotype corbarino; design: key to RQ1 / RQ2 / RQ3 / RQ mean: relative expression normalized to a-tubulin housekeeping gene; settings: for gene 12 (PR1 protein) expression: laminarin treatment group not specified
Protocol: (§1) Tomato ecotype “corbarino” reported to be susceptible to TSWV infection was used in the experiment. Plants were grown in pots in a climatic chamber with a photoperiod of 16/8 hour at 25° C.
(§2) The viral strain (TSWV PV PV-0393) was utilized in the experiment. The virus was mechanically inoculated and propagated on tomato “corbarino”. The inoculum was prepared in an ice-cooled mortar grounding 1 gr of infected tomato tissue in 10 ml of Na-phosphate buffer 0.01M. The fresh prepared inoculum was stored in ice before use. Tomato plants at BBCH16 were dusted with Carborundum 600 mesh and selected leaves were rubbed with some droplets of inoculum. After 5 min. plants were sprayed with sterile water to remove the excess of inoculum and preserve the cell turgor.
(§3) Four treatments were compared: i) Mock inoculated; ii) TSWV; iii) 0.25% Laminarin; iv) 0.25% Laminarin+TSWV. In the last treatment the virus was inoculated 24 hrs after the laminarin application.
(§4) Total RNA was extracted from systemic infected tomato leaves by using the Quick-RNA Plant Kit (Zymo Research) following the manufacturer instructions. The extractions were carried out using three plants after 12 h, 24 h, 48 h, 72 h, 7 days after inoculation. Leaves were instantly frozen in liquid nitrogen after cutting to avoid any deterioration of the sample as well as any defense reaction. The RNA concentration was quantified by measuring the absorbance at 260 nm using a Nanodrop 2000 (Thermofisher). The purity of all of the RNA samples was assessed at an absorbance ratio of OD260/280 and OD260/230, while its structural integrity was checked by agarose gel electrophoresis. Only high-quality RNA with OD 260/280 and OD 260/230>2 was used for subsequent steps. Single-stranded cDNA was synthesized from 1 μg of total RNA using an iScript™ Select cDNA Synthesis Kit and random hexamers as primers (Bio-Rad, Milan, Italy), according to the manufacturer's instructions. Three biological replicates were created from the 3 leaves collected to test 15 genes. Alpha tubulin was used as reference gene.
(§5) qPCR reactions were performed with BioRad (Applied Biosystems, Foster City, CA, USA) using SYBR R Green. Each reaction was performed in 20 μl containing 10 μl of 2× Power SYBR Green PCR Master Mix (Life Technologies), 0.2-0.3 μM primers and cDNA samples diluted 1:20. Each qPCR reaction was performed in triplicate. Reactions were run using the cycling parameter described previously (Reid et al., 2006) and the qPCR data were analyzed by the Ct method (Pfaffl, 2001). In order to analyze the qPCR data, a-tubulin gene was used as housekeeping to determine the relative expression level of the other genes analyzed in this work. For the determination of qPCR efficiency of each primer pairs, a standard curve was performed using the following cDNA dilutions: 1:4, 1:16, 1:64; 1:256 and 1:1024. Every measurement was made in triplicate. The corresponding qPCR efficiencies (E) were calculated for every primer pair with the software 7300 System SDS software (Applied Biosystems, Foster City, CA, USA) according to the equation E=(10−1/slope−1)×100 (Rutledge and Stewart, 2008).
(§6) The significance of the differences between the gene expressions levels were compared by one-way ANOVA (p=0.01) and the means were separated by Tukey post-hoc test using SPSS ver.26 ([…]).

[2] = system: Pathogenesis-related protein P4 (gene 11, M69247.1); test: qRT-PCR expression of gene 11 in tomato leaves; format: in vivo, Tomato ecotype corbarino; design: key: relative expression normalized to a-tubulin housekeeping gene
Protocol: as §1, §2, §3, §4, §5, §6

[3] = Gene_12, 24 hr, treatment Laminarin
[4] = Gene_12, 24 hr, treatment Laminarin + virus
[5] = Gene_12, 48 hr, treatment Laminarin
[6] = Gene_12, 48 hr, treatment Laminarin + virus
[7] = Gene_12, 72 hr, treatment Laminarin
[8] = Gene_12, 72 hr, treatment Laminarin + virus

Substance: laminarin
- RQ1 ([1]; 12 hr, Laminarin + virus): 10.097
- RQ2 ([1]; 12 hr, Laminarin + virus): 0.9948
- RQ3 ([1]; 12 hr, Laminarin + virus): 11.722
- RQ mean ([1]; 12 hr, Laminarin + virus): 10.589
- RQ1 ([1]; 12 hr, Laminarin alone): 0.9616
- RQ2 ([1]; 12 hr, Laminarin alone): 11.039
- RQ3 ([1]; 12 hr, Laminarin alone): 10.693
- RQ mean ([1]; 12 hr, Laminarin alone): 10.449
- gene 12 (PR1 protein) expression ([1]; 48 hr post treatment, not statistically significant): highly overexpressed
- gene 12 (PR1 protein) expression ([1]; 72 hr, statistically significant): overexpression of gene 12 is slightly reduced
- activation of systemic acquired resistance (SAR), inferred from gene 12 overexpression ([1]; 72 hr, tomato): activate the SAR
- RQ1 [1, 3]: 11.678
- RQ2 [1, 3]: 11.217
- RQ3 [1, 3]: 10.555
- RQ mean [1, 3]: 11.150
- RQ1 [1, 4]: 0.9321
- RQ2 [1, 4]: 11.344
- RQ3 [1, 4]: 11.191
- RQ mean [1, 4]: 10.619
- RQ1 [1, 5]: 46.753
- RQ3 [1, 5]: 31.171
- RQ mean [1, 5]: 60.670
- RQ1 [1, 6]: 42.751
- RQ2 [1, 6]: 56.022
- RQ3 [1, 6]: 37.918
- RQ mean [1, 6]: 45.564
- RQ1 [1, 7]: 44.543
- RQ2 [1, 7]: 23.924
- RQ3 [1, 7]: 31.675
- RQ mean [1, 7]: 33.381
- RQ1 [1, 8]: 36.333
- RQ2 [1, 8]: 29.356
- RQ3 [1, 8]: 21.584
- RQ mean [1, 8]: 29.091
- RQ1 ([2]; 12 hr, Laminarin + virus): 12.101
- RQ2 ([2]; 12 hr, Laminarin + virus): 11.431
- RQ3 ([2]; 12 hr, Laminarin + virus): 10.206
- RQ mean ([2]; 12 hr, Laminarin + virus): 11.246
- RQ1 ([2]; 12 hr, Laminarin alone): 0.9441
- RQ2 ([2]; 12 hr, Laminarin alone): 0.8925
- RQ3 ([2]; 12 hr, Laminarin alone): 11.302
- RQ mean ([2]; 12 hr, Laminarin alone): 0.9889
- RQ1 ([2]; 24 hr, Laminarin + virus): 13.862
- RQ2 ([2]; 24 hr, Laminarin + virus): 11.424
- RQ3 ([2]; 24 hr, Laminarin + virus): 11.236
- RQ mean ([2]; 24 hr, Laminarin + virus): 12.174
- RQ1 ([2]; 24 hr, Laminarin alone): 17.183
- RQ2 ([2]; 24 hr, Laminarin alone): 12.595
- RQ3 ([2]; 24 hr, Laminarin alone): 13.075
- RQ mean ([2]; 24 hr, Laminarin alone): 14.284
- RQ1 ([2]; 48 hr, Laminarin + virus): 28.058
- RQ2 ([2]; 48 hr, Laminarin + virus): 20.254
- RQ3 ([2]; 48 hr, Laminarin + virus): 34.812
- RQ mean ([2]; 48 hr, Laminarin + virus): 27.708
- RQ1 ([2]; 48 hr, Laminarin alone): 34.926
- RQ2 ([2]; 48 hr, Laminarin alone): 33.905
- RQ3 ([2]; 48 hr, Laminarin alone): 24.218
- RQ mean ([2]; 48 hr, Laminarin alone): 31.016
- RQ1 ([2]; 72 hr, Laminarin + virus): 80.672
- RQ2 ([2]; 72 hr, Laminarin + virus): 76.025
- RQ3 ([2]; 72 hr, Laminarin + virus): 53.346
- RQ mean ([2]; 72 hr, Laminarin + virus): 70.014
- RQ1 ([2]; 72 hr, Laminarin alone): 47.958
- RQ2 ([2]; 72 hr, Laminarin alone): 51.518
- RQ3 ([2]; 72 hr, Laminarin alone): 48.365
- RQ mean ([2]; 72 hr, Laminarin alone): 49.280
